Experimental data from paper PMC5218480 (PLoS ONE, 2017).

Tested on: MV-4-11 cells
Test: Gene expression microarray analysis (Affymetrix PrimeView) and GSEA
Assay type: cell-based, human
Parameters: RFU PODN (11730768_x_at) / Fold change /veh PODN (11730768_x_at) / RFU LINC00158 (11744669_a_at) / Fold change /veh LINC00158 (11744669_a_at) / RFU DUSP10 (11751237_a_at) / Fold change /veh DUSP10 (11751237_a_at) / RFU ID3 (11757404_x_at) / Fold change /veh ID3 (11757404_x_at) / RFU PLEKHG5 (11737974_s_at) / Fold change /veh PLEKHG5 (11737974_s_at) / RFU LRRC4B (11730491_at) / Fold change /veh LRRC4B (11730491_at) / RFU GIMAP4 (11747438_a_at) / Fold change /veh GIMAP4 (11747438_a_at) / RFU KRT8 (11758183_x_at) / Fold change /veh KRT8 (11758183_x_at) / RFU CNN1 (11734310_a_at) / Fold change /veh CNN1 (11734310_a_at) / RFU VPS37D (11726825_at) / Fold change /veh VPS37D (11726825_at) / RFU C10orf10 (11716522_x_at) / Fold change /veh C10orf10 (11716522_x_at) / RFU KIR2DL2 /// KIR2DL4 /// KIR2DL5A /// KIR2DL5B /// KIR2DS1 /// KIR2DS2 /// KIR2DS3 /// KIR2DS4 /// KIR3DL3 /// KIR3DL3 /// KIR3DS1 (11738374_at) / Fold change /veh KIR2DL2 /// KIR2DL4 /// KIR2DL5A /// KIR2DL5B /// KIR2DS1 /// KIR2DS2 /// KIR2DS3 /// KIR2DS4 /// KIR3DL3 /// KIR3DL3 /// KIR3DS1 (11738374_at) / RFU C1QL1 (11718748_at) / Fold change /veh C1QL1 (11718748_at) / RFU TMPRSS4 (11747572_a_at) / Fold change /veh TMPRSS4 (11747572_a_at) / RFU HAMP (11756126_x_at) / Fold change /veh HAMP (11756126_x_at) / RFU RNFT2 (11725882_a_at) / Fold change /veh RNFT2 (11725882_a_at) / RFU NR4A2 (11747474_a_at) / Fold change /veh NR4A2 (11747474_a_at) / RFU ABCC12 (11746883_a_at) / Fold change /veh ABCC12 (11746883_a_at) / RFU TMEM136 (11760407_x_at) / Fold change /veh TMEM136 (11760407_x_at) / RFU CLDN22 /// WWC2 (11732394_at) / Fold change /veh CLDN22 /// WWC2 (11732394_at) / RFU HLA-DPB1 (11760878_x_at) / Fold change /veh HLA-DPB1 (11760878_x_at) / RFU SPINT1 (11716480_a_at) / Fold change /veh SPINT1 (11716480_a_at) / RFU GAP43 (11754022_s_at) / Fold change /veh GAP43 (11754022_s_at) / RFU A4GNT (11735810_at) / Fold change /veh A4GNT (11735810_at) / RFU PRB3 (11715151_x_at) / Fold change /veh PRB3 (11715151_x_at) / RFU TUBB4B (11761932_at) / Fold change /veh TUBB4B (11761932_at) / RFU CAPN14 (11732068_a_at) / Fold change /veh CAPN14 (11732068_a_at) / RFU TMCC2 (11721928_a_at) / Fold change /veh TMCC2 (11721928_a_at) / RFU IRGQ (11745062_a_at) / Fold change /veh IRGQ (11745062_a_at) / RFU FAM174B (11720279_a_at) / Fold change /veh FAM174B (11720279_a_at) / RFU TMPRSS4 (11748680_a_at) / Fold change /veh TMPRSS4 (11748680_a_at) / RFU FAM212B (11763350_a_at) / Fold change /veh FAM212B (11763350_a_at) / RFU PLEKHG5 (11743358_a_at) / Fold change /veh PLEKHG5 (11743358_a_at) / RFU ZSCAN30 (11745921_a_at) / Fold change /veh ZSCAN30 (11745921_a_at) / RFU CMKLR1 (11741424_a_at) / Fold change /veh CMKLR1 (11741424_a_at) / RFU LOC101060620 /// MAPK8IP1 (11723275_at) / Fold change /veh LOC101060620 /// MAPK8IP1 (11723275_at) / RFU SPTSSB (11747773_x_at) / Fold change /veh SPTSSB (11747773_x_at) / RFU PRSS12 (11739890_at) / Fold change /veh PRSS12 (11739890_at) / RFU BIN1 (11741810_x_at) / Fold change /veh BIN1 (11741810_x_at) / RFU WNT11 (11732464_a_at) / Fold change /veh WNT11 (11732464_a_at) / RFU C10orf10 (11716521_a_at) / Fold change /veh C10orf10 (11716521_a_at) / RFU C5orf56 (11738089_at) / Fold change /veh C5orf56 (11738089_at) / RFU CYB561 (11721691_x_at) / Fold change /veh CYB561 (11721691_x_at) / RFU ANKRD19P (11752326_a_at) / Fold change /veh ANKRD19P (11752326_a_at) / RFU OR2T12 /// OR2T33 /// OR2T8 (11738714_s_at) / Fold change /veh OR2T12 /// OR2T33 /// OR2T8 (11738714_s_at) / RFU VCAN (11748164_a_at) / Fold change /veh VCAN (11748164_a_at) / RFU JSRP1 (11732532_at) / Fold change /veh JSRP1 (11732532_at) / RFU KRTAP10-11 (11738290_x_at) / Fold change /veh KRTAP10-11 (11738290_x_at) / RFU MYO3A (11730013_a_at) / Fold change /veh MYO3A (11730013_a_at) / RFU EBF3 (11725865_a_at) / Fold change /veh EBF3 (11725865_a_at) / RFU CAMK2N1 (11719241_x_at) / Fold change /veh CAMK2N1 (11719241_x_at) / RFU C5orf56 (11738088_a_at) / Fold change /veh C5orf56 (11738088_a_at) / RFU OLFML3 (11715873_a_at) / Fold change /veh OLFML3 (11715873_a_at) / RFU LOC100653217 /// NTM (11731650_a_at) / Fold change /veh LOC100653217 /// NTM (11731650_a_at) / RFU MAPK11 (11762145_a_at) / Fold change /veh MAPK11 (11762145_a_at) / RFU FIZ1 (11724087_x_at) / Fold change /veh FIZ1 (11724087_x_at) / RFU OASL (11726364_x_at) / Fold change /veh OASL (11726364_x_at) / RFU SOX15 (11748057_x_at) / Fold change /veh SOX15 (11748057_x_at) / RFU CD79A (11719716_a_at) / Fold change /veh CD79A (11719716_a_at) / RFU HIST1H1D (11736915_at) / Fold change /veh HIST1H1D (11736915_at) / RFU CASKIN2 (11723855_a_at) / Fold change /veh CASKIN2 (11723855_a_at) / RFU LOC730098 (11760151_x_at) / Fold change /veh LOC730098 (11760151_x_at) / RFU OR4N2 (11742367_at) / Fold change /veh OR4N2 (11742367_at) / RFU PRRT2 (11749266_a_at) / Fold change /veh PRRT2 (11749266_a_at) / RFU SNX32 (11753110_a_at) / Fold change /veh SNX32 (11753110_a_at) / RFU CDHR5 (11726645_a_at) / Fold change /veh CDHR5 (11726645_a_at) / RFU RCAN1 (11760418_a_at) / Fold change /veh RCAN1 (11760418_a_at) / RFU FAM167A (11723789_a_at) / Fold change /veh FAM167A (11723789_a_at) / RFU FAM26E (11764081_at) / Fold change /veh FAM26E (11764081_at) / RFU ISYNA1 (11749810_s_at) / Fold change /veh ISYNA1 (11749810_s_at) / RFU ACY1 (11761880_at) / Fold change /veh ACY1 (11761880_at) / RFU 11764098_at / Fold change /veh 11764098_at / RFU SAMD14 (11745864_x_at) / Fold change /veh SAMD14 (11745864_x_at) / RFU NPB (11741838_a_at) / Fold change /veh NPB (11741838_a_at) / RFU TMPRSS6 (11731388_a_at) / Fold change /veh TMPRSS6 (11731388_a_at) / RFU KRTAP10-2 (11738614_at) / Fold change /veh KRTAP10-2 (11738614_at) / RFU ARHGAP8 /// PRR5-ARHGAP8 (11727945_x_at) / Fold change /veh ARHGAP8 /// PRR5-ARHGAP8 (11727945_x_at) / RFU KRTAP5-7 /// NADSYN1 (11734609_at) / Fold change /veh KRTAP5-7 /// NADSYN1 (11734609_at) / RFU RASL12 (11751679_a_at) / Fold change /veh RASL12 (11751679_a_at) / RFU CDKN2B (11736163_a_at) / Fold change /veh CDKN2B (11736163_a_at) / RFU PRF1 (11729649_at) / Fold change /veh PRF1 (11729649_at) / RFU, ZNF638 /// ZNF638-IT1 / Fold change vs veh, ZNF638 /// ZNF638-IT1 / RFU, PANK3 / Fold change vs veh, PANK3 / RFU, SH3YL1 / Fold change vs veh, SH3YL1 / RFU, ZEB2 / Fold change vs veh, ZEB2 / RFU, NRIP1 / Fold change vs veh, NRIP1 / RFU, PTTG1IP / Fold change vs veh, PTTG1IP / RFU, CAPN2 / Fold change vs veh, CAPN2 / RFU, MED14 / Fold change vs veh, MED14 / RFU, SNORA58 / Fold change vs veh, SNORA58 / RFU, C1orf63 / Fold change vs veh, C1orf63 / RFU, LRRFIP1 / Fold change vs veh, LRRFIP1 / RFU, NDUFAF7 / Fold change vs veh, NDUFAF7 / RFU, SLC12A2 / Fold change vs veh, SLC12A2 / RFU, IBTK / Fold change vs veh, IBTK / RFU, ESF1 / Fold change vs veh, ESF1 / Fold change vs veh, TMEM50B / RFU, TAOK1 / Fold change vs veh, TAOK1 / RFU, ACBD3 / Fold change vs veh, ACBD3 / RFU, TMA16 / Fold change vs veh, TMA16 / RFU, RWDD3 / Fold change vs veh, RWDD3 / RFU, BCAT1 / Fold change vs veh, BCAT1 / RFU, EDEM3 / Fold change vs veh, EDEM3 / RFU, TMEM33 / Fold change vs veh, TMEM33 / RFU, WDR75 / Fold change vs veh, WDR75 / RFU, AHCTF1 / Fold change vs veh, AHCTF1 / RFU, TFRC / Fold change vs veh, TFRC / RFU, ZDHHC17 / Fold change vs veh, ZDHHC17 / RFU, NOM1 / Fold change vs veh, NOM1 / RFU, ARL8B / Fold change vs veh, ARL8B / RFU, ZBTB11 / Fold change vs veh, ZBTB11 / RFU, TAMM41 / Fold change vs veh, TAMM41 / RFU, KIAA1704 /// LOC100996395 / Fold change vs veh, KIAA1704 /// LOC100996395 / RFU, ING1 / Fold change vs veh, ING1 / RFU, TRMT61B / Fold change vs veh, TRMT61B / RFU, FUBP3 / Fold change vs veh, FUBP3 / RFU, TP53 / Fold change vs veh, TP53 / RFU, TNKS2 / Fold change vs veh, TNKS2 / RFU, ZFP14 / Fold change vs veh, ZFP14 / RFU, ACTR2 / Fold change vs veh, ACTR2 / RFU, PPP3R1 / Fold change vs veh, PPP3R1 / RFU, PIK3R1 / Fold change vs veh, PIK3R1 / RFU, HNRNPA1 / Fold change vs veh, HNRNPA1 / RFU, RNF170 / Fold change vs veh, RNF170 / RFU, ZNF28 / Fold change vs veh, ZNF28 / RFU, RNGTT / Fold change vs veh, RNGTT / RFU, OGT / Fold change vs veh, OGT / RFU, BRD1 / Fold change vs veh, BRD1 / RFU, MARS / Fold change vs veh, MARS / RFU, ZNF655 / Fold change vs veh, ZNF655 / RFU, FAHD1 / Fold change vs veh, FAHD1 / RFU, BDP1 / Fold change vs veh, BDP1 / RFU, LRRCC1 / Fold change vs veh, LRRCC1 / RFU, ARID1A / Fold change vs veh, ARID1A / RFU, ZNF146 / Fold change vs veh, ZNF146 / RFU, ZNF330 / Fold change vs veh, ZNF330 / RFU, GPN3 / Fold change vs veh, GPN3 / RFU, C9orf123 / Fold change vs veh, C9orf123 / RFU, N4BP2L2 / Fold change vs veh, N4BP2L2 / RFU, ARFIP1 / Fold change vs veh, ARFIP1 / RFU, FAM179B / Fold change vs veh, FAM179B / RFU, BCL10 / Fold change vs veh, BCL10 / RFU, UHRF1BP1L / Fold change vs veh, UHRF1BP1L / RFU, BET1 / Fold change vs veh, BET1 / RFU, CNOT2 / Fold change vs veh, CNOT2 / RFU, ZNF268 / Fold change vs veh, ZNF268 / Fold change vs veh, ZNF507 / RFU, DGCR2 / Fold change vs veh, DGCR2 / RFU, WDSUB1 / Fold change vs veh, WDSUB1 / Fold change vs veh, HSP90B1 /// MIR3652 / RFU, ADSS / Fold change vs veh, ADSS / RFU, GK / Fold change vs veh, GK / RFU, ZNF148 / Fold change vs veh, ZNF148 / RFU, TAF9 / Fold change vs veh, TAF9 / RFU, SLC1A5 / Fold change vs veh, SLC1A5 / RFU, SLMO2 / Fold change vs veh, SLMO2 / RFU, ABCC4 / Fold change vs veh, ABCC4 / RFU, LOC101060439 /// RAP1B / Fold change vs veh, LOC101060439 /// RAP1B / RFU, RFX7 / Fold change vs veh, RFX7 / RFU, GTPBP10 / Fold change vs veh, GTPBP10 / RFU, CNEP1R1 / Fold change vs veh, CNEP1R1 / RFU, BIVM-ERCC5 /// ERCC5 / Fold change vs veh, BIVM-ERCC5 /// ERCC5 / RFU, ILF3 / Fold change vs veh, ILF3 / RFU 11762660_at / Fold change /veh 11762660_at / RFU VCAN (11757783_s_at) / Fold change /veh VCAN (11757783_s_at) / RFU DDX43 (11728927_at) / Fold change /veh DDX43 (11728927_at) / RFU KRT8 (11758188_x_at) / Fold change /veh KRT8 (11758188_x_at) / RFU NKD1 (11759106_at) / Fold change /veh NKD1 (11759106_at) / RFU SRD5A1 (11742802_a_at) / Fold change /veh SRD5A1 (11742802_a_at) / RFU TPSAB1 /// TPSB2 (11721975_s_at) / Fold change /veh TPSAB1 /// TPSB2 (11721975_s_at) / RFU GSTM3 (11746129_a_at) / Fold change /veh GSTM3 (11746129_a_at) / RFU IL23R (11737362_x_at) / Fold change /veh IL23R (11737362_x_at) / RFU TMEM51 (11727254_a_at) / Fold change /veh TMEM51 (11727254_a_at) / RFU PIWIL2 (11732686_x_at) / Fold change /veh PIWIL2 (11732686_x_at) / RFU ORM1 (11744905_x_at) / Fold change /veh ORM1 (11744905_x_at) / RFU CCDC152 (11743942_at) / Fold change /veh CCDC152 (11743942_at) / RFU ECM1 (11717891_a_at) / Fold change /veh ECM1 (11717891_a_at) / RFU IL23R (11748794_a_at) / Fold change /veh IL23R (11748794_a_at) / RFU TNFAIP8L3 (11732012_x_at) / Fold change /veh TNFAIP8L3 (11732012_x_at) / RFU MBOAT4 (11741988_at) / Fold change /veh MBOAT4 (11741988_at) / RFU 11764193_at / Fold change /veh 11764193_at / RFU TMEM53 (11763286_at) / Fold change /veh TMEM53 (11763286_at) / RFU MAGEB2 (11727129_at) / Fold change /veh MAGEB2 (11727129_at) / RFU TMEM200A (11744735_a_at) / Fold change /veh TMEM200A (11744735_a_at) / RFU CCDC152 (11751479_a_at) / Fold change /veh CCDC152 (11751479_a_at) / RFU FAM211A (11726209_a_at) / Fold change /veh FAM211A (11726209_a_at) / RFU RGS16 (11746705_a_at) / Fold change /veh RGS16 (11746705_a_at) / RFU VCAN (11755009_s_at) / Fold change /veh VCAN (11755009_s_at) / RFU RHOB (11743442_s_at) / Fold change /veh RHOB (11743442_s_at) / RFU RGS16 (11720943_a_at) / Fold change /veh RGS16 (11720943_a_at) / RFU RGS16 (11720944_at) / Fold change /veh RGS16 (11720944_at) / RFU, VPS4B / Fold change vs veh, VPS4B / RFU, CREB1 / Fold change vs veh, CREB1 / RFU, DNAJC13 / Fold change vs veh, DNAJC13 / RFU, GNAQ / Fold change vs veh, GNAQ / RFU, CDK5R1 / Fold change vs veh, CDK5R1 / RFU, ZRANB3 / Fold change vs veh, ZRANB3 / RFU, CUL4A / Fold change vs veh, CUL4A / RFU, CCNY / Fold change vs veh, CCNY / RFU, UFL1 / Fold change vs veh, UFL1 / RFU, COG3 / Fold change vs veh, COG3 / RFU, DIAPH2 / Fold change vs veh, DIAPH2 / RFU, SKA2 / Fold change vs veh, SKA2 / RFU, AFF3 / Fold change vs veh, AFF3 / RFU, LMF1 / Fold change vs veh, LMF1 / RFU, IPO11 / Fold change vs veh, IPO11 / RFU, DFFB / Fold change vs veh, DFFB / RFU, FOXP1 / Fold change vs veh, FOXP1 / RFU, CARD8 / Fold change vs veh, CARD8 / RFU, STRN3 / Fold change vs veh, STRN3 / RFU, ADK / Fold change vs veh, ADK / RFU, RASSF2 / Fold change vs veh, RASSF2 / RFU, WIPF1 / Fold change vs veh, WIPF1 / RFU, LARP1B / Fold change vs veh, LARP1B / RFU, RASA1 / Fold change vs veh, RASA1 / RFU, RB1 / Fold change vs veh, RB1 / RFU, PPFIA1 / Fold change vs veh, PPFIA1 / RFU, MAT2A / Fold change vs veh, MAT2A / RFU, CCT5 / Fold change vs veh, CCT5 / RFU, WDR92 / Fold change vs veh, WDR92 / RFU, CUX1 / Fold change vs veh, CUX1 / RFU, TTC7A / Fold change vs veh, TTC7A / RFU, TMEM135 / Fold change vs veh, TMEM135 / RFU, DEPTOR / Fold change vs veh, DEPTOR / RFU, CPM / Fold change vs veh, CPM / RFU, DNAJB6 / Fold change vs veh, DNAJB6 / RFU, CACNA2D3 / Fold change vs veh, CACNA2D3 / RFU, DTX4 / Fold change vs veh, DTX4 / RFU, TFCP2 / Fold change vs veh, TFCP2 / RFU, GMCL1 /// GMCL1P1 / Fold change vs veh, GMCL1 /// GMCL1P1 / RFU, AEBP2 / Fold change vs veh, AEBP2 / RFU, SNHG1 /// SNORD22 /// SNORD25 /// SNORD26 /// SNORD27 /// SNORD28 /// SNORD29 /// SNORD31 / Fold change vs veh, SNHG1 /// SNORD22 /// SNORD25 /// SNORD26 /// SNORD27 /// SNORD28 /// SNORD29 /// SNORD31 / Fold change (Aza/veh), C12orf56 (ProbeSet 11735607_a_at) / Fold change (ACY-1035/veh), C12orf56 (ProbeSet 11735607_a_at) / Fold change (Aza/veh), FGFR1OP (ProbeSet 11751329_s_at) / Fold change (ACY-1035/veh), FGFR1OP (ProbeSet 11751329_s_at) / Fold change (Aza/veh), VPS36 (ProbeSet 11739960_a_at) / Fold change (ACY-1035/veh), VPS36 (ProbeSet 11739960_a_at) / RFU SYPL1 (11715823_x_at) / Fold change /veh SYPL1 (11715823_x_at) / RFU IGFBP7 (11715501_s_at) / Fold change /veh IGFBP7 (11715501_s_at) / RFU REEP3 (11722064_at) / Fold change /veh REEP3 (11722064_at) / RFU IGLL1 (11728026_x_at) / Fold change /veh IGLL1 (11728026_x_at): dose or concentration left out as unconfirmed
Settings: MV-4-11 cells, 48 hours

For `Nc1ncn([C@@H]2O[C@H](CO)[C@@H](O)[C@H]2O)c(=O)n1` [azacitidine], the “RFU CCDC152 (11743942_at)” value was 8.41 RFU.
